Data from ChEMBL document CHEMBL1201862, “PubChem BioAssay data set” (2004).
Calls of active or inactive are those of the source.

Tests used:
[1] = target: Beta-galactosidase (Escherichia coli, UniProt Q8VNN2); experiment: PubChem AID 485352; type: functional
[2] = target: Type-1 angiotensin II receptor (Homo sapiens, UniProt P30556); experiment: antagonism of angiotensin II type 1 receptor – cell-based, uHTS hits, selectivity assay for APJ receptor antagonist project, dose response (AID 463214); type: functional;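 note: antagonist potency against angiotensin II stimulated AT1 response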
[3] = tested on: INS1; experiment: INS-1E mitochondrial potential rescue under cytokines – cell-based, JC-1 fluorescence ratio, dry powder, dose response (AID 488931); type: functional; conditions: Rattus norvegicus
[4] = target: Luciferin 4-monooxygenase (Photuris pensylvanica, UniProt Q27757); experiment: inhibition of Cell Titer Glo luciferase signal – biochemical, luminescence, cherry-picks, counter-screen for HSF-1 reporter inhibitor project, dose response (AID 588847)
[5] = toxicity toward HepG2 liver cells – cell-based, plate reader, cherry-pick, antagonist series, cytotoxicity control, dose response (AID 743416); type: functional
[6] = alpha-synuclein stem-loop luciferase translation blockers – H4 neuroglioma cells, luminescence, confirmation (AID 1988); type: functional, cell-based
[7] = blockade of melanocortin 4 receptor signaling – cell-based, plate reader, cherry pick, counter-screen for LGR2 antagonist project, dose response (AID 743444); type: functional;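 note: transfected HEK 293 cells stimulated with alpha-MSH peptide; potency of inhibitors of the alpha-MSH evoked signal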
[8] = A549 cell cytotoxicity, dose response, cytotoxicity control, plate reader, cherry-pick, antagonist series (AID 743412); type: functional, cell-based
[9] = blockers of bursicon-stimulated LGR2 cAMP reporter – cell-based, HEK293, CRE-luciferase reporter, cherry pick, set 2, dose response (AID 743343); type: functional;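 note: transfected cells were stimulated with diluted bursicon conditioned medium after compound addition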
[10] = viability loss in HEK293 cells – cell-based, plate reader, cherry-picked samples, cytotoxicity control, dose response (AID 743446); type: functional
[11] = tested on: HEK293; experiment: cells; type: functional, cell-based; conditions: Homo sapiens
[12] = tested on: HEK293; experiment: NOD2 signaling inhibitors in MDP-stimulated cells, cell-based, uHTS, luminescence (AID 2001); type: functional; conditions: Homo sapiens
[13] = target: Nucleotide-binding oligomerization domain-containing protein 2 (Homo sapiens, UniProt Q9HC29); experiment: inhibition of NOD2-driven NF-kB reporter – cell-based, luminescence, uHTS, HEK293 (AID 1566); type: functional
[14] = tested on: HEK293; experiment: cells; type: functional, cell-based; conditions: Homo sapiens; remark: listed apart in the source
[15] = tested on: HEK293; experiment: cells; type: functional, cell-based; conditions: Homo sapiens; remark: listed apart in the source
[16] = tested on: HEK293; experiment: inhibition of NOD1-driven NF-kB reporter – cell-based, luminescence, uHTS, primary screen (AID 1578); type: functional; conditions: Homo sapiens
[17] = tested on: H4; experiment: Inhibitors of Prion Protein 5' UTR mRNA Measured in Cell-Based System Using Plate Reader - 2078-01_Inhibitor_Dose_DryPowder_Activity. [Related pubchem assays (depositor defined):AID488894]; type: functional; conditions: Homo sapiens
[18] = target: T1, Small ubiquitin-related modifier 1 (Homo sapiens, UniProt P63165); experiment: SUMO1 protein interaction blockers, potency – biochemical, fluorescence polarization, uHTS hits, dose response (AID 624382); type: functional; conditions: read-out: IC50_Mean
[19] = target: Induced myeloid leukemia cell differentiation protein Mcl-1 (Homo sapiens, UniProt Q07820); type: functional
[20] = target: T1, Small ubiquitin-related modifier 1; experiment: SUMO1 protein-protein binding blockers, potency – biochemical, FRET, dose response (AID 624383); type: functional; conditions: read-out: IC50_Mean
[21] = target: Genome polyprotein (dengue virus type 2, UniProt P29990); experiment: flavivirus cap methylation enzyme inhibition – biochemical, confirmation dose response, primary screen (AID 588689); type: functional
[22] = target: ORF 73 (Human herpesvirus 8, UniProt O40947); experiment: KSHV LANA DNA-binding disruption – biochemical, fluorescence polarization, cherry-picked samples, dose response (AID 504725); parameters: species or system Human gammaherpesvirus 8;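 note: fluorescence polarization of a labeled DNA duplex reporting LANA DNA binding; potency is for inhibitors that block LANA binding to the DNA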
[23] = tested on: HeLa; experiment: viability loss in HeLa cells – cell-based, 24 h, cherry-picked samples, cytotoxicity control, dose response (AID 504726); type: functional; conditions: Homo sapiens;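 note: potency for cytotoxicity as loss of luminescence signal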
[24] = target: Glutathione-S-transferase (Schistosoma japonicum, UniProt Q26513); experiment: GST-antibody interaction or FRET quenching – biochemical, TR-FRET, artefact control for Vif-APOBEC3G degradation inhibitor project, dose response (AID 1117362); type: functional
[25] = target: Beta-adrenergic receptor kinase 1 (Homo sapiens, UniProt P25098); experiment: aptamer displacement from bead-bound GRK2 – biochemical, cherry pick 1, bead flow cytometry, dose response (AID 504500)
[26] = target: Voltage-gated inwardly rectifying potassium channel KCNH2 (Homo sapiens, UniProt Q12809); conditions: Potency;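 note: confirmatory quantitative high-throughput screen measuring inhibition of hERG channel activity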
[27] = target: Cytochrome P450 3A4 (Homo sapiens, UniProt P08684); conditions: Potency;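 note: confirmatory qHTS run detecting inhibitors and substrates of CYP3A4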
[28] = target: T2, Polyadenylate-binding protein 1 (Homo sapiens, UniProt P11940); experiment: MLLE domain peptide-binding blockers, IC50 – biochemical, fluorescence polarization, FITC-PAM2 peptide, dose response (AID 602259); type: functional; conditions: read-out: IC50_Mean
[29] = target: T3, Rac GTPase-activating protein 1 (Homo sapiens, UniProt Q9H0H5); experiment: blockers of MgcRacGAP-driven Rac1 GTP hydrolysis – biochemical, ADP Hunter fluorescence, primary and confirmatory, confirmation (AID 624330); type: functional
T3 sequence (Q9H0H5 whole entry): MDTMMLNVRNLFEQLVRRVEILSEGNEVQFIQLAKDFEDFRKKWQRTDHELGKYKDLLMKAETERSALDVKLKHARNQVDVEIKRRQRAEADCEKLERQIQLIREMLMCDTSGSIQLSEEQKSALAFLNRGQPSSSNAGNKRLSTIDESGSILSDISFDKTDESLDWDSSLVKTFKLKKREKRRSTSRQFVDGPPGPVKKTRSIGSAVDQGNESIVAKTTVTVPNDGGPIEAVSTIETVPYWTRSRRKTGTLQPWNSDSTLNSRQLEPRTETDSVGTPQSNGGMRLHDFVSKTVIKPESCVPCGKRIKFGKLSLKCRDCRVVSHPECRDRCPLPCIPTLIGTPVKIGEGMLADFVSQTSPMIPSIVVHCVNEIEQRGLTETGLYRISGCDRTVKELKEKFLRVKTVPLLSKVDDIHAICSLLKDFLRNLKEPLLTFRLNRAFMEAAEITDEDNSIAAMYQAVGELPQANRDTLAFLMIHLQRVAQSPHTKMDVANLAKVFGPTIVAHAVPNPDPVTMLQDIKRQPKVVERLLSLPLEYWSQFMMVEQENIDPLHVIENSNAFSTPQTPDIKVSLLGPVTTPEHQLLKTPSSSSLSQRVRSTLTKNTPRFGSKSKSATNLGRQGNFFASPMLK

[30] = target: FAD-linked sulfhydryl oxidase ALR (Homo sapiens, UniProt P55789); experiment: ALR-catalysed DTT oxidation blockers – biochemical, H2O2 detection, luminescence, cherry-pick, dose response (AID 493248)
[31] = target: T4, Corticotropin-releasing factor receptor 2/Corticotropin-releasing factor-binding protein (Homo sapiens, UniProt P24387+Q13324); experiment: Dose Response confirmation of uHTS hits for small molecule antagonists of the CRF-binding protein and CRF-R2 receptor complex.; type: functional; conditions: read-out: IC50_Mean
T4 sequence (Q13324 whole entry): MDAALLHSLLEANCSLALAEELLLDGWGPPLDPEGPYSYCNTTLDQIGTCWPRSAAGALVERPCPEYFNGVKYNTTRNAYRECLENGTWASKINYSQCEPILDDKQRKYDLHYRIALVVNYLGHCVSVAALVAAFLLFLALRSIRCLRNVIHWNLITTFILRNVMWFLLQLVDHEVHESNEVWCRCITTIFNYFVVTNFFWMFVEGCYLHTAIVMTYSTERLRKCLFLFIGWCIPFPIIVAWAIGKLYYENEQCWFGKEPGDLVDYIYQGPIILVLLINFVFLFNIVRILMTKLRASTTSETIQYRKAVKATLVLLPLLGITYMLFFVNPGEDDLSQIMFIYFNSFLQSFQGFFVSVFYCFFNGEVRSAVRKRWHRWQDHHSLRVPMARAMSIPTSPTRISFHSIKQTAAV
T4 sequence (P24387 whole entry): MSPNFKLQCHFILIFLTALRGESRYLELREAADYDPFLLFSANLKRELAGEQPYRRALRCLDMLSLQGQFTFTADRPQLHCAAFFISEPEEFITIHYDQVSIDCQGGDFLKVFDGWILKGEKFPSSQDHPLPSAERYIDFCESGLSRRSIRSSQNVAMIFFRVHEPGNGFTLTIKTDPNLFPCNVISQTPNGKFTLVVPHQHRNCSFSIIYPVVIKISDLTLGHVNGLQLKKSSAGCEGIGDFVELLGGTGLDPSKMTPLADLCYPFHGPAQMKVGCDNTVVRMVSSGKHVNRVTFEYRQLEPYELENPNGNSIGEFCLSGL

[32] = target: Dual specificity tyrosine-phosphorylation-regulated kinase 1A (Rattus norvegicus, UniProt Q63470); type: biochemical, Homo sapiens
[33] = target: T5, Zinc finger protein mex-5 (Caenorhabditis elegans, UniProt Q9XUB2); experiment: potency of MEX-5 RNA-binding blockers – biochemical, C. elegans, fluorescence polarization, dose response (AID 1960)
T5 sequence (Q9XUB2 whole entry): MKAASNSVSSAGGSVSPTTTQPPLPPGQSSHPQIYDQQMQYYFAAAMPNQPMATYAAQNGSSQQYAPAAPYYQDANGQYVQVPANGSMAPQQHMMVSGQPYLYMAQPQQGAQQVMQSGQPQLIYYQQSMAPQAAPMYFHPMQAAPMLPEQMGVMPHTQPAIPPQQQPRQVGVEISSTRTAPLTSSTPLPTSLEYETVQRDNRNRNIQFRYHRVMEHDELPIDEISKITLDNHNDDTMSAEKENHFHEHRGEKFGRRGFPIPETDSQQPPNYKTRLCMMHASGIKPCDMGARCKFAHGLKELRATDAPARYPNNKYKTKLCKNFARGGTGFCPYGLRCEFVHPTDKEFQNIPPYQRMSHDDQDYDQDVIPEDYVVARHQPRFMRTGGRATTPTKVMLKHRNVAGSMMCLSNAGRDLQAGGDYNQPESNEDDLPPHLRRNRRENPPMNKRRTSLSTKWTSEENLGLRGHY

[34] = target: T4, Corticotropin-releasing factor receptor 2/Corticotropin-releasing factor-binding protein; experiment: activators of CRF receptor 2 with binding protein – uHTS hits, confirmation (AID 602473); type: functional; conditions: read-out: EC50_Mean
[35] = target: Major prion protein (Homo sapiens, UniProt P04156); type: functional, cell-based
[36] = target: T6, RNA-binding protein pos-1 (Caenorhabditis elegans, UniProt G5EF15); experiment: disruptors of C. elegans POS-1 RNA interaction – biochemical, fluorescence polarization, dose response (AID 1964);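 note: purified POS-1 fused to maltose binding protein made in E. coli; potency of compounds blocking POS-1 binding to fluorescent RNA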
T6 sequence (G5EF15 whole entry): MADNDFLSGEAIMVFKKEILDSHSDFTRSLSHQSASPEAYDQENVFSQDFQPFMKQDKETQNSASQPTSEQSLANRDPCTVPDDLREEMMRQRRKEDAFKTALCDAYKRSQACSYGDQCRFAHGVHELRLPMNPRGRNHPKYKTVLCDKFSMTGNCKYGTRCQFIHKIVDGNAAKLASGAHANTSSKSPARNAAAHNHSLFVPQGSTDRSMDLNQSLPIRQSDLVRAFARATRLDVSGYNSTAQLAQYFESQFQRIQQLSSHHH

[37] = target: T2, Polyadenylate-binding protein 1; experiment: MLLE binding blockers, Cy5 peptide tracer – biochemical, fluorescence polarization, Cy5-PAM2 peptide, secondary, miRNA deadenylation inhibitor project, dose response (AID 602260); type: functional; conditions: read-out: IC50_Mean

Cc1cc(C(=O)NNc2ccc(C)c(C)c2)no1
EC50 [1]: > 40 µM (inactive) | IC50 [2]: 8.58 µM (active)

COc1ccc(S(=O)(=O)N(C)C[C@@H]2Oc3c(NC(=O)Nc4c(C)noc4C)cccc3C(=O)N([C@@H](C)CO)C[C@H]2C)cc1
AC50 [3]: 28 µM (active)

N#CCCCC#Cc1ccc2c(c1)COc1c3ccccc3nn1-2
AC50 [4]: 1.76 µM (active) | AC50 [5]: > 52 µM (inactive) | EC50 [6]: 10.1 µM (inconclusive) | AC50 [7]: 7.77 µM (active) | AC50 [8]: > 52 µM (inactive) | AC50 [9]: 6.24 µM (active) | AC50 [10]: > 52 µM (inactive)

COc1cc(NC(=O)c2cccs2)c(C(=O)OCC(=O)c2cc(C)n(-c3ccccc3)c2C)cc1OC
IC50 [11]: > 20 µM (inactive) | IC50 [12]: > 20 µM (inactive) | EC50 [13]: 7.27 µM (active) | AC50 [7]: 3.07 µM (active) | IC50 [14]: 1.19 µM (active) | IC50 [15]: > 20 µM (inactive) | EC50 [16]: > 20 µM (inactive) | AC50 [9]: 9.95 µM (active) | AC50 [17]: 2.17 µM (active)

O=C(O)c1cccc2c1NC(C(=O)O)C1CC(Sc3ccccc3[N+](=O)[O-])C(Cl)C21 (centres undefined)
IC50 [18]: > 66.6 µM (inactive) | IC50 [19]: 2.17 µM (active) | IC50 [20]: 5.21 µM (active) | IC50 [21]: 38.9 µM (active) | AC50 [22]: 59.6 µM (active) | AC50 [23]: 179 µM (active) | IC50 [24]: > 100 µM (active) | EC50 [25]: 19.4 µM (inactive)

CCOP(=S)(OCC)SCCSCC [DISULFOTON]
AC50 [26]: 1 µM (inconclusive) | AC50 [27]: 20 µM (inconclusive)

S=c1[nH]c2ccccc2n2c(=S)[nH]nc12
IC50 [28]: > 66 µM (inactive) | IC50 [29]: 56.5 µM (active) | AC50 [30]: 2.35 µM (active) | IC50 [31]: > 47.1 µM (inactive) | AC50 [32]: 8 µM (active) | EC50 [33]: 6.1 µM (active) | EC50 [34]: > 53 µM (inactive) | IC50 [35]: > 1.7 µM (active) | EC50 [36]: 10.3 µM (inconclusive) | IC50 [37]: > 66 µM (inactive)
